Some test systems named below: SK-MEL-2; OVCAR-5; OVCAR-8; SF-539; IGROV-1; K562; HT-29; HCT-15; PC-3; NCI-H226; OVCAR-3; SNB-19; MDA-MB-231; HOP-62; OVCAR-4; NCI-H23; UACC-257; TK-10; Hs-578T.
Assay in all cases: inhibition of tumour cell growth, NCI panel, 48 h

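These data come from cells grown in 96-well plates and exposed to compound for 48 hours at five concentrations. GI50 is the concentration that inhibits growth by half.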 Activity calls are given as the source filed them. Cut-off read from the data, not from the text of the source: active = GI50 up to about 1.1 µM and inactive = higher.

Take `CCOC(=O)C1=C(C)N(C)C23OC4(C(=O)OC)CC2c2ccccc2C1N3C4=O` (centres undefined): the GI50 was > 100 µM (inactive) in the experiment with SK-MEL-2; > 100 µM (inactive) in the experiment with OVCAR-5; > 100 µM (inactive) with OVCAR-8; 22.3 µM (inactive) with SF-539; > 100 µM (inactive) in the experiment with IGROV-1; 83 µM (inactive) in the experiment on K562. Moreover, the GI50 with HT-29 is 51.9 µM (inactive); in the experiment with HCT-15 it was 63.7 µM; in the experiment on PC-3 it was > 100 µM (inactive); with NCI-H226, > 100 µM (inactive); in the experiment with OVCAR-3, > 100 µM (inactive); in the experiment with SNB-19, > 100 µM (inactive). The GI50 in the experiment with MDA-MB-231, in the experiment with HOP-62, in the experiment on OVCAR-4, in the experiment with NCI-H23, in the experiment with UACC-257 and with TK-10 was > 100 µM (inactive) throughout.
As to `O=C1CCC[C@@H]2NC[C@@H](c3ccc4c(c3)OCO4)[C@H]12`, the GI50 in the experiment with SK-MEL-2, in the experiment with Hs-578T, in the experiment on OVCAR-5, in the experiment with OVCAR-8, in the experiment on IGROV-1 and with K562 was > 25 µM (inactive) each time. Besides, the GI50 in the experiment with HT-29 was > 25 µM (inactive); in the experiment on HCT-15, over 25 µM; with PC-3, > 25 µM (inactive); in the experiment on NCI-H226, > 25 µM (inactive); in the experiment on SNB-19, > 25 µM (inactive); with MDA-MB-231, > 25 µM (inactive). In addition, the GI50 in the experiment with HOP-62, with OVCAR-4, in the experiment on NCI-H23, in the experiment on UACC-257 and with TK-10 was > 25 µM (inactive) in each case.
As for `CCCCCN1CCN(c2ncccn2)CC1`, the GI50 in the experiment with SK-MEL-2, in the experiment on Hs-578T, with OVCAR-5, in the experiment on OVCAR-8, in the experiment with SF-539 and in the experiment on IGROV-1 was > 100 µM (inactive) throughout. In addition, the GI50 in the experiment on K562 was > 100 µM (inactive); in the experiment on HT-29 it was > 100 µM (inactive); in the experiment with HCT-15 it was over 100 µM; in the experiment on PC-3, > 100 µM (inactive); in the experiment with OVCAR-3, > 100 µM (inactive); in the experiment with SNB-19, > 100 µM (inactive). The GI50 in the experiment with MDA-MB-231, in the experiment on HOP-62, in the experiment with OVCAR-4, with NCI-H23, with UACC-257 and in the experiment with TK-10 was > 100 µM (inactive) in each case.
In the case of `CC(=O)NS(=O)(=O)c1ccc(NC(=O)c2c3ccccc3nc3ccccc23)cc1`, the GI50 in the experiment on SK-MEL-2, in the experiment on OVCAR-5, in the experiment on OVCAR-8, with SF-539, in the experiment with IGROV-1 and in the experiment with K562 was > 100 µM (inactive) throughout. For the same compound, the GI50 was > 100 µM (inactive) in the experiment on HT-29; over 100 µM in the experiment with HCT-15; > 100 µM (inactive) with PC-3; > 100 µM (inactive) in the experiment on OVCAR-3; > 100 µM (inactive) in the experiment with SNB-19; > 100 µM (inactive) in the experiment on MDA-MB-231. The GI50 in the experiment with HOP-62, in the experiment with OVCAR-4, in the experiment with NCI-H23, with UACC-257 and in the experiment on TK-10 was > 100 µM (inactive) each time.
`Cc1cc2c(cc1C)[n+]([O-])c(N1CCN(c3ccc([N+](=O)[O-])cc3)CC1)c(C#N)[n+]2[O-]`: the GI50 in the experiment on SK-MEL-2 is 22 µM (inactive); in the experiment on Hs-578T, 34.6 µM (inactive); in the experiment on OVCAR-5, 37.6 µM (inactive); in the experiment with OVCAR-8, 16.6 µM (inactive); in the experiment with IGROV-1, 25.3 µM (inactive); with HT-29, > 100 µM (inactive). The GI50 in the experiment on HCT-15 is 85.3 µM; in the experiment on PC-3, 32.3 µM (inactive); with NCI-H226 it was 35.6 µM (inactive); with SNB-19, 18 µM (inactive); in the experiment with MDA-MB-231, 20 µM (inactive); with HOP-62, 15.2 µM (inactive). Moreover, the GI50 with OVCAR-4 was 39.4 µM (inactive); in the experiment on NCI-H23 it was 25.6 µM (inactive); in the experiment with UACC-257, 85.9 µM (inactive); in the experiment with TK-10, 15 µM (inactive).
With `N#CC12C(=O)N=C(N)C1(C#N)C(c1ccco1)NC1=C2CCCC1` (centres undefined), the GI50 with SK-MEL-2, in the experiment on Hs-578T, in the experiment with OVCAR-5, in the experiment on OVCAR-8, with IGROV-1 and in the experiment on HT-29 was > 100 µM (inactive) each time. The GI50 was over 100 µM in the experiment with HCT-15; > 100 µM (inactive) in the experiment on PC-3; > 100 µM (inactive) in the experiment on NCI-H226; > 100 µM (inactive) with SNB-19; > 100 µM (inactive) in the experiment with MDA-MB-231; > 100 µM (inactive) in the experiment on HOP-62. Also, the GI50 with OVCAR-4, with NCI-H23, in the experiment on UACC-257 and in the experiment on TK-10 was > 100 µM (inactive) each time.
On to `O=C(Nc1ccccc1)C(=O)C(C(=O)c1ccccc1)C(c1ccccc1)c1ccccc1` (centres undefined), for which the GI50 in the experiment on OVCAR-8 is > 10 µM (inactive); in the experiment with IGROV-1 it was > 10 µM (inactive); in the experiment with K562, > 10 µM (inactive); with HT-29, > 10 µM (inactive); in the experiment with HCT-15, over 10 µM; in the experiment on PC-3, > 10 µM (inactive). Besides, the GI50 in the experiment with MDA-MB-231, with HOP-62, with OVCAR-4, with NCI-H23, in the experiment with UACC-257 and in the experiment with TK-10 was > 10 µM (inactive) in each case.
For the compound `CCCCCCCCCC1(N=[N+]=[N-])C(=O)c2ccccc2N(C)C1=O` (centres undefined), the GI50 with SK-MEL-2 was 25.4 µM (inactive); with Hs-578T, 24.3 µM (inactive); in the experiment on OVCAR-5 it was 31.9 µM (inactive); with SF-539, 70 µM (inactive); in the experiment on IGROV-1 it was 27.2 µM (inactive); in the experiment with K562, 19.8 µM (inactive). Further, the GI50 with HT-29 is 30.4 µM (inactive); in the experiment with HCT-15 it was 30.3 µM; in the experiment on PC-3 it was 19.4 µM (inactive); with OVCAR-3, 25 µM (inactive); with SNB-19 it was 54.7 µM (inactive); in the experiment on HOP-62 it was 35.8 µM (inactive). Moreover, the GI50 with OVCAR-4 was 67.1 µM (inactive); with NCI-H23, 25.6 µM (inactive); in the experiment on UACC-257 it was 32.9 µM (inactive); in the experiment on TK-10, 32.3 µM (inactive).
With `N#C[BH2-][n+]1cn(C2CC(O)C(COP(=O)(O)OC3CC(n4cnc5c(N)ncnc54)OC3CO)O2)c2nc(N)[nH]c(=O)c21` (centres undefined), the GI50 in the experiment on SK-MEL-2, in the experiment with OVCAR-5, in the experiment with OVCAR-8, in the experiment on SF-539, in the experiment with IGROV-1 and with HT-29 was > 100 µM (inactive) in each case. Further, the GI50 was over 100 µM with HCT-15; > 100 µM (inactive) in the experiment with PC-3; > 100 µM (inactive) with NCI-H226; > 100 µM (inactive) with OVCAR-3; > 100 µM (inactive) in the experiment on SNB-19; > 100 µM (inactive) in the experiment with MDA-MB-231. In addition, the GI50 in the experiment on HOP-62, in the experiment on OVCAR-4, in the experiment with NCI-H23 and in the experiment on UACC-257 was > 100 µM (inactive) throughout.
With `N[C@@H](CCC(=O)NCP(=O)(O)O)C(=O)O`, the GI50 in the experiment with SK-MEL-2, with Hs-578T, in the experiment with OVCAR-5, in the experiment on OVCAR-8, in the experiment with SF-539 and in the experiment on IGROV-1 was > 100 µM (inactive) in each case. Moreover, the GI50 was > 100 µM (inactive) with K562; > 100 µM (inactive) in the experiment with HT-29; over 100 µM in the experiment on HCT-15; > 100 µM (inactive) in the experiment with PC-3; > 100 µM (inactive) in the experiment on OVCAR-3; > 100 µM (inactive) with SNB-19. The GI50 in the experiment on MDA-MB-231, in the experiment with HOP-62, in the experiment on NCI-H23, in the experiment with UACC-257 and in the experiment with TK-10 was > 100 µM (inactive) each time.
For `O=C(O)CCCc1ccc2ccccc2c1`, the GI50 in the experiment with SK-MEL-2, with Hs-578T, with OVCAR-5, with OVCAR-8, with SF-539 and in the experiment on IGROV-1 was > 100 µM (inactive) each time. The GI50 was > 100 µM (inactive) in the experiment with K562; > 100 µM (inactive) in the experiment with HT-29; over 100 µM in the experiment on HCT-15; > 100 µM (inactive) with PC-3; > 100 µM (inactive) with OVCAR-3; > 100 µM (inactive) in the experiment with SNB-19. In addition, the GI50 in the experiment with MDA-MB-231, with HOP-62, with OVCAR-4, with NCI-H23, in the experiment on UACC-257 and in the experiment on TK-10 was > 100 µM (inactive) each time.
For the compound `OC[C@H]1O[C@@H]2O[C@@](COCc3ccccc3)([C@H](OCc3ccccc3)[C@H]2O)[C@@H]1OCc1ccccc1`, the GI50 is 16.3 µM (inactive) with SK-MEL-2; 7.4 µM (inactive) in the experiment with Hs-578T; 17.1 µM (inactive) with OVCAR-5; 14.6 µM (inactive) in the experiment with OVCAR-8; 17.5 µM (inactive) in the experiment with SF-539; 13.9 µM (inactive) in the experiment on IGROV-1. For the same compound, the GI50 with K562 was 7.76 µM (inactive); with HT-29, 4.81 µM (inactive); in the experiment with HCT-15, 18.8 µM; in the experiment with PC-3 it was 14.2 µM (inactive); in the experiment with OVCAR-3, 14.6 µM (inactive); in the experiment with SNB-19 it was 17.6 µM (inactive). In addition, the GI50 with MDA-MB-231 is 15.3 µM (inactive); in the experiment on HOP-62 it was 18.1 µM (inactive); with OVCAR-4 it was 2.99 µM (inactive); in the experiment with NCI-H23 it was 16.6 µM (inactive); with UACC-257, 17.5 µM (inactive); in the experiment on TK-10, 18.6 µM (inactive).

Source of the values: ChEMBL document CHEMBL1201862, “PubChem BioAssay data set” (2004).
